Here are results for one molecule from PMC7067850, “Identification of highly potent and selective inhibitor, TIPTP, of the p22phox-Rubicon axis as a therapeutic agent for rheumatoid arthritis” (Scientific Reports, 2020).

Data set [1] in a line: Pharmacokinetic study in male ICR mice (IP and IV). The format is in vivo, mouse. As to the method: TIPTP at a dose of 0.5 mg/kg and 1 mg/kg was administered intravenously and intraperitoneally to male ICR mice. Blood samples were collected via the carotid artery at 0 (to serve as a control), 0.03, 0.16, 0.25, 0.5, 1, 2, 4, 6, and 24 h after administration of the compound. After centrifugation at 3000 rpm for 10 min, a 13.5 µL aliquot of plasma samples were stored at -20 C until analysis. Pharmacokinetic parameters were determined by a noncompartmental analysis using WinNonlin® (Pharsight Corporation, Mountain View, CA) program. The total area under the plasma concentration-time curve from time zero to the last measured time (AUClast) was calculated by the trapezoidal rule[…] method. Standard methods in the literature (M. Gibaldi, D. Perrier, Pharmacokinetics, second ed., Marcel-Dekker, New York, 1982.) were used to calculate the following pharmacokinetic parameters; the time averaged total body clearance (CL), total area under the first moment of plasma concentration-time curve from time zero to time infinity (AUC0-∞), terminal half-life, mean residence time (MRT), apparent volume of distribution at steady state (Vss). Concentrations of the compound in the above samples were analyzed using LC-MS/MS. To a 13.5 µL aliquot of plasma sample, a 60 µL aliquot of acetonitrile containing 1 µg/mL of internal standard (carbamazepine) was added. After vortex mixing and centrifugation at 6,000 rpm for 15 min, a […] of supernatant was added to 100μL distilled water and injected into LCMS/MS system. The LC-MS/MS system consisted of Agilent 1200 series HPLC system (Agilent, Santa Clara, CA) and API3200® triple-quadrupole mass spectrometer (Applied Biosystems-SCIEX, Concord, Canada). The HPLC mobile phases consisted of 0.1% formic acid in water (A) and acetonitrile (B). Chromatographic separation was achieved on a reversed-phase Atlantis T3 column (100 x 2.1 mm, 3 µm, Waters Corporation, Milford, MA) using gradient elution at a flow rate of 0.25 mL/min. The lower limit of quantitation of the compound in mice plasma was 9.7 ng/mL. The values of coefficients of correlation (R) were more than 0.997.

Data set [2] has as its target T1, p22phox–Rubicon interaction (Homo sapiens, UniProt P13498).
T1 construct: The plasmid encoding full-length of the p22phox (V5-p22phox) and Rubicon (Flag-Rubicon) were previously described; expressed in transfected cells; host or cells: HEK293T (293T) cells, transient co-transfection
T1 sequence (P13498 1-195): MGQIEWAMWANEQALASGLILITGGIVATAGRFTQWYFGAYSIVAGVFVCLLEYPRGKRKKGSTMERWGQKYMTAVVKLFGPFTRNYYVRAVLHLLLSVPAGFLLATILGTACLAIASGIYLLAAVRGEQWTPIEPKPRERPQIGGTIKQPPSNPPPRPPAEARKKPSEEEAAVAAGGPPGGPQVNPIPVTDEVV
Put plainly: p22phox–Rubicon interaction, co-IP in 293T cells co-transfected with V5-p22phox and Flag-Rubicon. To be noted: inhibition of p22phox–Rubicon interaction, compounds 0.01-20 μM for 24 h (Supplemental Fig. 5a). The class given is cell-based. As to the method: Immunoblot and immunoprecipitation assays were performed as described previously[18],[23]. For immunoprecipitation, cells were harvested and then lysed in NP-40 buffer supplemented with a complete protease inhibitor cocktail (Roche). After pre-clearing with protein A/G agarose beads (GE Healthcare Life Science) for 1 h at 4 °C, whole-cell lysates were used for immunoprecipitation with the indicated antibodies. Generally, 1–4 μg of commercial antibody was added to 1 ml of cell lysates and incubated at 4 °C for 8 to 12 h. After the addition of protein A/G agarose beads for 6 h, immunoprecipitants were extensively washed with lysis buffer and eluted with SDS loading buffer by boiling for 5 min.
For immunoblotting, polypeptides were resolved by SDS-polyacrylamide gel electrophoresis and transferred to a PVDF membrane (Bio-Rad). […] Antibody binding was visualized by chemiluminescence (ECL; Millipore) and detected by a Vilber chemiluminescence analyzer (Fusion SL 3; Vilber Lourmat).
(a) 293T cells were co-transfected with V5-p22phox and Flag-Rubicon. 12 h post transfection, cells were treated with compound 1 or 2 (0.01, 0.1, 1, 5, 10, 20 μM) for 24 h, and subjected to IP with αFlag, followed by IB with αV5. WCLs were used for IB with αFlag, αV5, or αActin. […]

The nature of another data set: Plasma stability assay. The format is in vitro ADME. To be noted: 37 °C. The protocol:
Human plasma in each culture tube, treated with test compound (10 μM), was incubated at 37 °C for 0, 30 and 120 min. At the determined period of time, internal standard solution of chlopropamide in acetonitrile was added into each culture tube and then tubes were vortexed for 5 min, and then centrifuged for 5 min (14,000 rpm, 4 °C). The supernatant was then injected into LC-MS/MS system to analyze the plasma stability of the tested compound.

The mark [3] stands for this setting: IP, 1 mg/kg, male ICR mouse plasma.
Setting [4] is: IV, 0.5 mg/kg, male ICR mouse plasma.

For the molecule `C[C@@H](Oc1cccc(-n2cc3c(n2)CCCC3)c1)C(=O)Nc1nnc(C(F)(F)F)s1` [TIPTP, (R)-2-(3-(4,5,6,7-tetrahydro-2H-indazol-2-yl)phenoxy)-N-(5-(trifluoromethyl)-1,3,4-thiadiazol-2-yl)propanamide], in data set [1] (setting [3]), the AUC(0-inf) was determined as 15100 ± 3410 ng·h/mL, the highest level (Cmax) was 5590 ± 1430 ng/mL, the MRT inf turned out to be 3.42 ± 0.43 h and the Tmax is 0.23 ± 0.04 h. For the same molecule, in data set [1] (setting [3]), the half-life was 2.91 ± 0.14 h. Moreover, the area under the curve AUC(0-t) in data set [1] (IP, 1 mg/kg, male ICR mouse plasma, n = 5, mean ± SD) turned out to be 15100 ± 3410 ng·h/mL. In data set [1] (setting [4]), this molecule showed an AUC(0-inf) of 10000 ± 451 ng·h/mL, an MRT inf of 2.57 ± 0.52 h and a half-life of 3.67 ± 0.39 h. In data set [1] (IV, 0.5 mg/kg, male ICR mouse plasma, n = 3, mean ± SD), the area under the curve AUC(0-t) worked out at 9980 ± 446 ng·h/mL. The molecule also gave a clearance in data set [1] (plasma, IV, 0.5 mg/kg, male ICR mouse) of 0.832 mL/min/kg. The Vd in data set [1] (plasma, IV, 0.5 mg/kg, male ICR mouse, read-out: Vss) was 0.128 ± 0.0246 L/kg. In addition, it took 0.1 µM to reach half-maximal inhibition in data set [2] (IC50). Besides, the “Human plasma stability (% remaining after 30 min)” value in “Plasma stability assay” (10 μM, 30 min, listed as TIPTP (2)) is on record as 97.4%. The “Human plasma stability (% remaining after 2 h)” value in the data set “Plasma stability assay” (10 μM, 2 h, listed as TIPTP (2)) was 93.8%. The amount remaining at 0.5 h, 10 μM in the data set “Plasma stability assay” (human, plasma, 30 min, read-out: Human plasma stability (% remaining after 30 min)) came to 97%. The fraction remaining at 2 h, 10 μM in “Plasma stability assay” (human, plasma, 2 h, read-out: Human plasma stability (% remaining after 2 h)) stood at 94%.
